Article PMC10537604, “Development and Assessment of 1,5–Diarylpyrazole/Oxime Hybrids Targeting EGFR and JNK–2 as Antiproliferative Agents: A Comprehensive Study through Synthesis, Molecular Docking, and Evaluation” (Molecules, 2023)

Assays:
[1] = test system: human colorectal adenocarcinoma cell line DLD-1; assay: WST-8 antiproliferative assay, DLD-1; assay type: cell-based; conditions: DLD-1, 100 µM, WST-8 assay, read-out: Growth Inhibition (GI%) DLD-1
Procedure: (§1) Compounds 7a–j, 8a–j, 9a–c, and 10a–c were evaluated for in vitro anticancer activities against five different cancer cell lines, namely, human colorectal adenocarcinoma cell lines DLD-1, human cervical cancer cell line Hela, human pancreatic cancer cell line SUIT-2, human myelogenous leukemia cell line K562, and human hepatocellular carcinoma cell line HepG2 using WST-8 assay at concentrations of 100 µM to investigate the growth inhibition percent (GI%) of each compound using daunorubicin as a reference drug. […]. […] So, as a conclusion on the SAR study of those compounds as antiproliferative agents, the oxime moiety potentiated the anticancer activity and electron donating groups on R1 and R2 played an important role on this activity. Moreover, the sulfamoyl moiety on R3 seems to play a potential role in the activity of the prepared compounds (Table 1).
(§2) All selected compounds and daunorubicin were recorded as the minimum concentration required to inhibit half cell growth (IC50) and the results are listed in Table 2.
(§3) Evaluation of anticancer activity was performed according to the standard water-soluble tetrazolium-8 (WST-8) assay at the Faculty of Engineering, Yamagata University, Yonezawa, Japan, using an MTP-310 absorbance microplate reader. The EGFR inhibitory assay was carried out at the Faculty of Engineering, Yamagata University, Yonezawa, Japan, according to the protocol enzyme linked immunosorbent assay (ELISA) kits (Douset sandwich ELISA test, recombinant mouse EGFR). The JNK-2 inhibitory assay was performed at the Faculty of Engineering, Yamagata University, Yonezawa, Japan, according to the protocol of enzyme-linked immunosorbent assay (ELISA), the assay was carried out using the JNK-2 kit (Simple Step ELISA, pT183/Y185, Abcam Company, Cambridge, CB2 0AX, UK). Apoptosis and cell cycle analysis was performed at Faculty of medicine, Yamagata University, Yamagata, Japan, using BD FACS melody. Molecular docking was performed at the Nano Medical Engineering Laboratory, RIKEN Cluster for Pioneering Researchers, RIEKN, Japan, using ICM-Pro 3.8 software (MolSoft L.L.C., San Diego, CA, USA).
(§4) According to the standard water-soluble tetrazolium-8 (WST-8) assay, the current synthesized compounds have been tested for their anticancer activities against different five cancer cell lines; DLD-1, Hela, K562, SUIT-2, and HepG2 and daunorubicin was used as reference drug by the WST-8 assay. The five cells were maintained in a suspension culture, (Dulbecco’s modified eagle medium (DMEM) for SUIT-2, Hela, and HepG2 or PRIM for K562 and DLD), supplemented with 5% FBS (Fetal Bovine Serum) containing 1% of a penicillin-streptomycin (1:1) mixture. A 100 μL aliquot of cells (10,000 cells/mL) was added to a 96 well plate and incubated for 24 h at 37 °C in a humidified incubator containing 5% CO2 in the air. After 24 h, a 10 μL aliquot of test compound (concentrations varying in the range of 10–150 µM) was added to each of the 96 wells and incubated for 24 h. Then A 10 μL WST-8 solution (mixture of WST-8 and 1-methoxy PMS) was added to each well and the incubation continued for 3 h. The visible absorbance at 450 nm and 630 nm as the reference wavelength of each well was quantified using an MTP-310 absorbance microplate reader. Daunorubicin was used as a positive control. The results of cytotoxicity were recorded as growth inhibition percentages and as IC50 values.

[2] = test system: human cervical cancer cell line Hela; assay: WST-8 antiproliferative assay, Hela; assay type: cell-based; conditions: 100 µM, WST-8 assay, read-out: Growth Inhibition (GI%) Hela
Procedure: as §1, §2, §3
as §4, with “After 24 h, a 10 μL aliquot of test compound (concentrations varying in the range of 10–150 µM) was added to each of the 96 wells and incubated for 24 h.” left out

[3] = test system: human myelogenous leukemia cell line K562; assay: WST-8 antiproliferative assay, K562; assay type: cell-based; conditions: Homo sapiens, K562; 100 µM, WST-8 assay; read-out: Growth Inhibition (GI%) K562
Procedure: as §1, §2, §3
as §4, with “After 24 h, a 10 μL aliquot of test compound (concentrations varying in the range of 10–150 µM) was added to each of the 96 wells and incubated for 24 h.” left out

[4] = test system: human pancreatic cancer cell line SUIT-2; assay: WST-8 antiproliferative assay, SUIT-2; assay type: cell-based; conditions: SUIT-2, 100 µM, WST-8 assay, read-out: Growth Inhibition (GI%) SUIT-2
Procedure: as §1, §2, §3, §4

[5] = test system: human hepatocellular carcinoma cell line HepG2; assay: WST-8 antiproliferative assay, HepG2; assay type: cell-based; conditions: HepG2, 100 µM, WST-8 assay, read-out: Growth Inhibition (GI%) HepG2
Procedure: as §1, §2, §3, §4

Row | Compound | inhibition at 100 µM [1] [%] | inhibition at 100 µM [2] [%] | inhibition at 100 µM [3] [%] | inhibition at 100 µM [4] [%] | inhibition at 100 µM [5] [%] | melting point [°C]
1 | COc1cc(C(C)=O)ccc1OC(=O)c1cc(-c2ccccc2)n(-c2ccccc2)n1 [Compound 7a, 4–Acetyl–2–methoxyphenyl 1,5–diphenyl–1H–pyrazole–3–carboxylate] | 0 | 55 | 0 | 101 | 5 | 98 to 100
2 | COc1ccc(-c2cc(C(=O)Oc3ccc(C(C)=O)cc3OC)nn2-c2ccccc2)cc1 [Compound 7c, 4–Acetyl–2–methoxyphenyl–5–(4–methoxyphenyl) 1–phenyl–1H–pyrazole–3–carboxylate] | 0 | 52 | 48 | 68 | 0 | 69 to 71
3 | COc1ccc(-c2cc(C(=O)Oc3ccc(C(C)=O)cc3OC)nn2-c2ccccc2)cc1OC [Compound 7e, 4–Acetyl–2–methoxyphenyl–5–(3,4–dimethoxyphenyl) 1–phenyl–1H–pyrazole–3–carboxylate] | 59.4 | 73 | 0 | 101 | 14 | 74 to 76
4 | COc1cc(C(C)=O)ccc1OC(=O)c1cc(-c2ccccc2)n(-c2ccc(S(N)(=O)=O)cc2)n1 [Compound 7f, 4–Acetyl–2–methoxyphenyl–5–phenyl 1–(4–sulfamoylphenyl)–1H–pyrazole–3–carboxylate] | 18.6 | 16 | 24 | 75 | 10 | 69 to 72
5 | COc1ccc(-c2cc(C(=O)Oc3ccc(C(C)=O)cc3OC)nn2-c2ccc(S(N)(=O)=O)cc2)cc1 [Compound 7h, 4–Acetyl–2–methoxyphenyl 5–(4–methoxyphenyl) 1–(4–sulfamoylphenyl)–1H–pyrazole–3–carboxylate] | 0 | 0 | 0 | 73 | 0 | 80 to 83
6 | COc1ccc(-c2cc(C(=O)Oc3ccc(C(C)=O)cc3OC)nn2-c2ccc(S(N)(=O)=O)cc2)cc1OC [Compound 7j, 4–Acetyl–2–methoxyphenyl–5–(3,4–dimethoxyphenyl) 1–(4–sulfamoylphenyl)–1H–pyrazole–3–carboxylate] | 0.1 | 10 | 11 | 81 | 0 | 75 to 78
7 | COc1ccc(-c2cc(C(=O)Oc3ccc(/C(C)=N/O)cc3OC)nn2-c2ccccc2)cc1 [Compound 8c, (E)–4–(1–(Hydroxyimino)ethyl)–2–methoxyphenyl 5–(4–methoxyphenyl) 1–phenyl–1H–pyrazole–3–carboxylate] | 0 | 78 | 67 | 61 | 51 | 132 to 135
8 | COc1ccc(-c2cc(C(=O)Oc3ccc(/C(C)=N/O)cc3OC)nn2-c2ccc(S(N)(=O)=O)cc2)cc1OC [Compound 8j, (E)–4–(1–(Hydroxyimino)ethyl)–2–methoxyphenyl 5–(3,4–dimethoxyphenyl)–1–(4–sulfamoylphenyl)–1H–pyrazole–3–carboxylate] | 9.6 | 53 | 34 | 79 | 60 | 129 to 131
9 | CC(=O)c1ccc(NC(=O)c2cc(-c3ccccc3)n(-c3ccc(S(N)(=O)=O)cc3)n2)cc1 [Compound 9a, N–(4–Acetylphenyl)–5–phenyl–1–(4–sulfamoylphenyl)–1H–pyrazole–3–carboxamide] | 60.7 | 9 | 66 | 60 | 36 | 81 to 83
